A short description of assay [1]: Counterscreen for inhibitors of Trypanosoma brucei methionyl tRNA synthetase (MetRS): Luminescence-based cell-based high throughput dose response assay to identify compounds that are cytotoxic to Jurkat human T lymphocyte cells. The assay is classed as functional. On the technique in general: The purpose of a counterscreen is to sort out artefacts and off-target activity.

The target of assay [2] is FAD-linked sulfhydryl oxidase ALR (Homo sapiens, UniProt P55789). As to the kind of experiment: inhibitors of human ALR sulfhydryl oxidase, dose response, biochemical, H2O2 detection, luminescence, cherry-pick (AID 493248).
The nature of assay [3]: Late stage counterscreen for inhibitors of Trypanosoma brucei methionyl tRNA synthetase (MetRS): Luminescence-based cell-based high throughput dose response assay to identify compounds that are cytotoxic to Jurkat human T lymphocyte cells. The assay is classed as functional.
For assay [4], the target named is T1, Methionyl-tRNA synthetase, putative (Trypanosoma brucei brucei, UniProt Q38C91).
T1 sequence (Q38C91 whole entry): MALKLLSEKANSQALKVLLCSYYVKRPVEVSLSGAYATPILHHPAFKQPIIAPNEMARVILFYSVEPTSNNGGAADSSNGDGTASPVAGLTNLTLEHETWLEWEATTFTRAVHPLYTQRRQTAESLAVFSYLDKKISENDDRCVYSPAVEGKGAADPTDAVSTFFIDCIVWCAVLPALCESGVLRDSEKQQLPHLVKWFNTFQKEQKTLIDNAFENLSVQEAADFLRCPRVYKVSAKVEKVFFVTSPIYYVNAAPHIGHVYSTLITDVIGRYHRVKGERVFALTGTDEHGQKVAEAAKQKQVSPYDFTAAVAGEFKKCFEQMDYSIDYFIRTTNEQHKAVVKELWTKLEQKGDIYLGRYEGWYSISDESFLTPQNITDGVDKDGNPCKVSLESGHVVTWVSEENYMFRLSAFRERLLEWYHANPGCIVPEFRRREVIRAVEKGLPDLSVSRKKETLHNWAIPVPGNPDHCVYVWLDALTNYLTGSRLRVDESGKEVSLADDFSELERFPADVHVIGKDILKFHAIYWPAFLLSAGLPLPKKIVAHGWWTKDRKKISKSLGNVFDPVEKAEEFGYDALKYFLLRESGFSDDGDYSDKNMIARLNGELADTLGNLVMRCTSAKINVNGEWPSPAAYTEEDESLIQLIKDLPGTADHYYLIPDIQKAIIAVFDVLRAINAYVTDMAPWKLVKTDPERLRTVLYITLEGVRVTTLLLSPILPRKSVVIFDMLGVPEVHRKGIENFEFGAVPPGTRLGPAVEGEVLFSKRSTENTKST
The assay is classed as functional, Trypanosoma brucei brucei strain 927/4 GUTat10.1.

Assay [5] addresses T1, Methionyl-tRNA synthetase, putative. The assay is classed as functional, Trypanosoma brucei brucei strain 927/4 GUTat10.1. The source holds these as a separate data set.
For assay [6], the target named is T2, Rac GTPase-activating protein 1 (Homo sapiens, UniProt Q9H0H5).
T2 sequence (Q9H0H5 whole entry): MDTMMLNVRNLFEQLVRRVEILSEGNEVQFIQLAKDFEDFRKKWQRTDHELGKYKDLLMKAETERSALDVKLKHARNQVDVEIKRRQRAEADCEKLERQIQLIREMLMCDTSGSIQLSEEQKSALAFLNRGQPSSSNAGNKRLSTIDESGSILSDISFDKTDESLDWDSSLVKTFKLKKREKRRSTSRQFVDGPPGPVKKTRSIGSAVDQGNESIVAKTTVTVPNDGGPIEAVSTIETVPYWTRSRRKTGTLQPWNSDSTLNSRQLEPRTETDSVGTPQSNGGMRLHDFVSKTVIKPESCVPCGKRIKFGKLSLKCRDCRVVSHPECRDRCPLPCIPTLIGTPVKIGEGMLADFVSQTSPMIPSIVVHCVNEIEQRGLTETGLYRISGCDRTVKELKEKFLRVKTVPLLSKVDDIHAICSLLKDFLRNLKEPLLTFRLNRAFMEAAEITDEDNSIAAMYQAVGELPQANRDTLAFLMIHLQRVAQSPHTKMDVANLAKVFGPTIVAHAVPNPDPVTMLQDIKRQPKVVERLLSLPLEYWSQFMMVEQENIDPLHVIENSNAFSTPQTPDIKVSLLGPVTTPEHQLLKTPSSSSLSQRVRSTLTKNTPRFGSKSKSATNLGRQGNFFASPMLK
Kind of assay: MgcRacGAP GTPase-activating activity inhibitors, confirmation, biochemical, ADP Hunter fluorescence, primary and confirmatory (AID 624330). The assay is classed as functional.

The next assay has as its target fMet-Leu-Phe receptor (Homo sapiens, UniProt P21462). Kind of assay: FPR ligands, dose response (AID 519). The class given is functional.
Another assay concerns the target Major prion protein (Homo sapiens, UniProt P04156). The class given is functional, cell-based.
The target of assay [7] is Endoplasmic reticulum aminopeptidase 1 (Homo sapiens, UniProt Q9NZ08). Kind of assay: ERAP1 aminopeptidase inhibitors, dose response, biochemical, cherry-pick, set 2, plate reader (AID 743314).
Assay [8] deals with Nucleotide-binding oligomerization domain-containing protein 2 (Homo sapiens, UniProt Q9HC29). As to the kind of experiment: NOD2 signaling inhibitors, cell-based, luminescence, uHTS, HEK293 (AID 1566). The assay is classed as functional.
Another assay has as its system INS1. As to the kind of experiment: beta cell apoptosis inhibitors, cytokine rescue, dose response, luminescence, retest (AID 449756).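 Also: cell death triggered by IL-1 beta plus TNF-alpha plus IFN-gamma mixture; protective hits raise ATP signal compared with cytokine alone wells.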 The assay is classed as functional, cell-based. Conditions: Rattus norvegicus.
Assay [9] has as its target T3, Corticotropin-releasing factor receptor 2/Corticotropin-releasing factor-binding protein (Homo sapiens, UniProt P24387+Q13324).
T3 sequence (Q13324 whole entry): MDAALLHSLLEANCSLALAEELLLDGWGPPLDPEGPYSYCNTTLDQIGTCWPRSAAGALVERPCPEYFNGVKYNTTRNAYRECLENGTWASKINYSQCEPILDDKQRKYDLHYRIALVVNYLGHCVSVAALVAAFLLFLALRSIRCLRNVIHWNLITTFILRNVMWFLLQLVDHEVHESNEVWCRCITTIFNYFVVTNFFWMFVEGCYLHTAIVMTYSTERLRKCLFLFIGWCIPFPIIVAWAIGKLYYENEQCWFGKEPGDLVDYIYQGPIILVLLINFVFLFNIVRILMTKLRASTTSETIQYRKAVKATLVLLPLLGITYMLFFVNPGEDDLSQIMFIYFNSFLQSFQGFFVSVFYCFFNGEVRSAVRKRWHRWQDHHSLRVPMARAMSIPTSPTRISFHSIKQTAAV
T3 sequence (P24387 whole entry): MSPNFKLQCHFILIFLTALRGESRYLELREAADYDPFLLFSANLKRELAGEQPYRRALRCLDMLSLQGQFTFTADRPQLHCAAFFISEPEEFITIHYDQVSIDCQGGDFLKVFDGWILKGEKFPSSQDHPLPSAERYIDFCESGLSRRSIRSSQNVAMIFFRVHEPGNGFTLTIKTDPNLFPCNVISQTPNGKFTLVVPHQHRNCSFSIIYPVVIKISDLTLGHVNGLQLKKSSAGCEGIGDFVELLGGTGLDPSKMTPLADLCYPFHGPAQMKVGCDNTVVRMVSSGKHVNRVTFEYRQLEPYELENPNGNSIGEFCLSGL
As to the kind of experiment: activators of CRF receptor 2 with binding protein – uHTS hits, confirmation (AID 602473). The class given is functional. The following applies: read-out: EC50_Mean.

Assay [10] can be described thus: reduction of Shn3 3'UTR firefly luciferase signal, dose response, Schnurri-3 inhibitor project, cell-based, Clone20 osteoblasts, cherry-pick, set 2 (AID 720490).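 Also: actives lower the luminescence signal as inhibitors.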 The assay is classed as functional.
Assay [11] relates to HEK293. Kind of assay: cells. The assay is classed as functional, cell-based. The following applies: Homo sapiens.
The subject of assay [12] is HEK293. Kind of assay: NOD1 signaling inhibitors, primary screen, cell-based, luminescence, uHTS (AID 1578). The class given is functional. Conditions: Homo sapiens.
A short description of assay [13]: inhibitors of intracellular T. cruzi replication, confirmation, NIH3T3 host cells, beta-gal luminescence (AID 2044).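 Also: intracellular parasites grown in NIH/3T3 mouse fibroblasts as host cells; luminescent beta-galactosidase reporter signal from transgenic T. cruzi replicating inside host cells; inhibitors lower the luminescence signal.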 The class given is functional, cell-based.
Assay [14] is described as follows: cytotoxicity toward NIH3T3 fibroblasts, dose response, counter-screen, cell-based, ATP luminescence, mouse fibroblasts (AID 2010).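 Also: cells exposed to compound for about 90 hours before reading.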 The class given is functional.
In another assay the target is T4, CAAX prenyl protease 2 (Saccharomyces cerevisiae S288c, UniProt Q03530).
T4 sequence (Q03530 whole entry): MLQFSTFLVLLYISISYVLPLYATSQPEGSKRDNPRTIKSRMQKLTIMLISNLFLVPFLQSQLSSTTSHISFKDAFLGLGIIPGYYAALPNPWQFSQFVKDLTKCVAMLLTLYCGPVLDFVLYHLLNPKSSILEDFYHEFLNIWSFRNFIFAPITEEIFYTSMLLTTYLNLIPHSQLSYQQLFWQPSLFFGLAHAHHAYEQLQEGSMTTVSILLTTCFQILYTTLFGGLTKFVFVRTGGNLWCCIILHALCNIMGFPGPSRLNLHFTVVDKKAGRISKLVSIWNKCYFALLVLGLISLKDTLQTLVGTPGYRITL
The class given is biochemical.

For the next assay, the target named is Protein Wnt-3a (Mus musculus, UniProt P27467). As to the kind of experiment: Wnt3a-driven reporter signaling inhibition, dose response, selectivity assay for Gli-SUFU antagonist project, Wnt-LIGHT cells, luminescence (AID 651570).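 Also: Wnt-LIGHT reporter cells stimulated with conditioned medium from Wnt3a-producing cells.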 The assay is classed as functional. Conditions: read-out: IC50_Mean.
In assay [15] the test system is HEK293. Kind of assay: cells. The following applies: Homo sapiens. The assay is classed as functional, cell-based. This is another data set of the same source.
The nature of assay [16]: reduction of endogenous Shn3 mRNA, dose response, qPCR, Clone20 cells, cherry-pick (AID 743415). The assay is classed as functional, cell-based. On the technique in general: In qPCR the cycle at which signal appears reflects the starting amount.
Assay [17] concerns HEK293. Kind of assay: NOD2 signaling inhibitors in MDP-stimulated cells, cell-based, uHTS, luminescence (AID 2001). The assay is classed as functional. The following applies: Homo sapiens.
The test system of assay [18] is HEK293. Kind of assay: cells. The following applies: Homo sapiens. The class given is functional, cell-based. This is another data set of the same source.
Assay [19] is described as follows: Shn3 3'UTR reporter inhibitors, dose response, cell-based, Clone20 osteoblasts, firefly luciferase, cherry-picked (AID 624132).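 Also: firefly luciferase luminescence from reporter carrying the Shn3 3'UTR in osteoblasts.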 The class given is functional.

The source made the active and inactive calls. Some results are limits rather than exact numbers.

As usually defined, the AC50 is the concentration giving half of the maximal activity seen. For the compound `Oc1c(Cl)cc(Cl)cc1CNc1nc2ccccc2[nH]1`, the IC50 in assay [1] is 83.3 µM (inactive); in assay [3], > 83.3 µM (inactive); in assay [4], 488 nM (active); in assay [5], 661 nM (active). In addition, the AC50 in [2] was 587 nM (active).

A word on the Ki: it is a dissociation constant, usually derived from enzyme kinetics or from competition with a known ligand. As to `CC(C)(C)CC(=O)Nc1ccc(Nc2ccccc2)cc1`, the IC50 in [6] was 88.6 µM (active). Besides, the Ki on fMet-Leu-Phe receptor was > 66.7 µM (inactive).

On to `CCc1nc(SCC(=O)N2c3ccccc3Sc3ccccc32)c2ccccc2n1`, for which the IC50 on Major prion protein was 1.84 µM (active); in “cells”, > 138 µM (inactive).

`CCc1cc(=O)oc2c(CN3CCN(C)CC3)c(O)ccc12`: the AC50 in [7] is 7.3 µM (active).

On to `COc1ccccc1N1CCN(c2ncc(C(=O)N3CCN(c4cccc(Cl)c4)CC3)c3ccccc23)CC1`, for which the EC50 is 9.31 µM (active) in [8]; > 53 µM (inactive) in assay [9]; 4.31 µM (active) in the assay with HEK293 [12]; 2.29 µM (active) in assay [13]; > 30 µM (not active) in assay [14]. Besides, the AC50 is 3.93 µM (active) with INS1; 1.81 µM (active) in [10]; 9.46 µM (active) on CAAX prenyl protease 2; 30 µM (active) in assay [16]; 572 nM (active) in assay [19]. Further, the IC50 with HEK293 [11] is > 20 µM (inactive); on Protein Wnt-3a, 1.47 µM (active); in the assay on HEK293 [15] it was > 20 µM (inactive); in the assay with HEK293 [17], 4.46 µM (active); with HEK293 [18], 5.68 µM (active).

Values taken from ChEMBL document CHEMBL1201862, “PubChem BioAssay data set” (2004).
